# Laboratory results from patent US20220185764A1, “Resveratrol derivative and anti-fibrotic method using the same” (TAIZHOU HUAYUAN MEDICINAL TECH CO. LTD., priority 2020, published 2022).
# Tests used:
# [1] = tested on: CCl4 induced liver fibrosis in rats; experiment: Evaluation of anti-liver fibrosis in vivo (CCl4 induced liver injury/fibrosis); parameters: species or system SD rats; conditions: test compound 10 mg/ml, 0.5 ml/100 g intragastric 1 time/day, 8 weeks; for GSH-PX / HYP / MDA / SOD: liver tissue, ELISA kit, CCl4 rats; for ALP / ALT / AST / LDH: serum, male SD rats, 40% CCl4 oil i.p. 1 time/3 days
# Method: CCl4 was prepared into a 40% CCl4 oil with commercially available non-genetically modified peanut oil. The test compound was prepared into a 10 mg/ml solution with a 0.5% sodium carboxymethyl cellulose solution, for later use.
# Adult male SD rats were randomly divided into a normal control group, a model group and a drug treatment group. The rats in the normal control group were intraperitoneally injected with peanut oil (0.3 ml/100 g, 1 time/3 days), and intragastrically administrated with 0.5% sodium carboxymethyl cellulose solution (0.5 ml/100 g, 1 time/1 day). The rats in the model group were intraperitoneally injected with 40% CCl4 oil (0.3 ml/100 g, 1 time/3 days), and intragastrically administrated with 0.5% sodium carboxymethyl cellulose solution (0.5 ml/100 g, 1 time/day). The rats in the drug treatment group were intraperitoneally injected with 40% CCl4 oil (0.3ml/100 g, 1 time/3 days), and intragastrically administrated with the 0.5% sodium carboxymethyl cellulose solution of the test compound (0.5 ml/100 g, 1 time/day). Rats in each group were bred in an air-conditioned animal laboratory with a temperature of (23±1)° C. and a relative humidity of (45±5)%, with day and night alternating every 12 hours, and they were free to eat and drink.
# After being fed for 8 weeks, all the rats were fasted for 12 hours. After anesthesia, the blood of the rat was collected from the femoral artery, and the whole liver tissue was quickly weighed and frozen in liquid nitrogen for later use. 3 rats in each group were taken and their livers were cut, soaked into formalin solution for 24 h and prepared to paraffin-embedded pathological sections. The whole blood of the rats was centrifuged at 3000 r/min for 10min to obtain the separated serum, which was then frozen and stored for later use.
# Alanine aminotransferase (ALT), aspartate aminotransferase (AST), alkaline phosphatase (ALP), and lactate dehydrogenase (LDH) in the serum were measured by Hitachi 7600 automatic biochemical analyzer.
# The concentration of hydroxyproline (HYP) or malondialdehyde (MDA), and the activity of superoxide dismutase (SOD) or glutathione peroxidase(GSH-Px) in liver tissues were detected according to the corresponding operation steps of ELISA kit (Nanjing Jiancheng Biological Company).
# [2] = tested on: bleomycin-induced pulmonary fibrosis in rats; experiment: Evaluation of anti-pulmonary fibrosis in vivo (bleomycin-induced); parameters: species or system SD rats; conditions: lung tissue, 14th day
# Method: Bleomycin (batch number: 16037911, Hisun Pfizer Co., Ltd.) was prepared into a 5 mg/mL solution with normal saline; and the test compound was prepared into a solution with a 0.5% sodium carboxymethyl cellulose solution to a certain concentration for later use.
# Adult male SD rats were randomly divided into a normal control group, a model group and a drug treatment group. After the animals in each group were anesthetized by intraperitoneal injection of 20% urethane (10 mL/kg), they were incised in the middle of the neck to expose the trachea. The rats in the normal control group were injected with 0.2 ml normal saline into the trachea all at once, and intragastrically administrated with 0.5% sodium carboxymethyl cellulose solution (0.5 ml/100 g, 1 time/day) the next day. The rats in the model group were injected with 0.2 ml of bleomycin solution into the trachea all at once, and simultaneously intragastrically administrated with 0.5% sodium carboxymethyl cellulose solution (0.5 ml/100 g, 1 time/day). The rats in the drug treatment group were injected with 0.2 ml bleomycin solution into the trachea all at once and simultaneously intragastrically administrated with the 0.5% sodium carboxymethyl cellulose solution of the test compound at different concentrations (0.5 ml/100 g, 1 time/day). The rats in each group were bred in an air-conditioned animal laboratory with a temperature of (23±1)° C. and a relative humidity of (45±5)%, with day and night alternating every 12 hours, and they were free to eat and drink. The rats were fasted for 12 hours on the 14th day after administration. After anesthesia, the blood of the rat was collected from the femoral artery and the lung tissue was separated. The right lung was perfused with 10% neutral formaldehyde through the trachea and then was put into stationary liquid for fixation and pathological examination. The left lung was cryopreserved in a refrigerator at -80° C. for testing the biochemical indicators.
# The contents of HYP, MDA, GSH and SOD in lung tissues were detected according to the corresponding operation steps of ELISA kit (Nanjing Jiancheng Biological Company).
# [3] = tested on: liver function in mice; experiment: Evaluation of subacute toxicity (continuous administration, liver function); format: in vivo; parameters: AST / ALP: unit not given here; conditions: serum; male ICR mice, 200 mg/kg intragastric once a day for 4 consecutive weeks
# Method: Male ICR mice aged 6-8 weeks were fasted for 16 hours and randomly divided into groups, 5 mice per group. The test compound was formulated into a suspension with a 0.5% sodium carboxymethyl cellulose solution, and administered intragastrically at a concentration of 200 mg/kg, once a day for 4 consecutive weeks. After the last administration, the mice were fasted for 12 hours but were free to drink water during the fasting period. Then the mice were anesthetized. Blood was taken from the abdominal aorta and serum was prepared for the determination of blood biochemical and immunological indicators. EDTA anticoagulant blood was prepared for routine blood measurement. Except for some significant increase in transaminase (ALT, AST, […]) of some drug administration groups, there were no significant differences in other indicators among the groups.
# [4] = dose 100 mg/kg intragastric 1 time/day
# [5] = dose 50 mg/kg intragastric 1 time/day
SMILES,GSH-PX [1] [U/mg protein],HYP [1] [μg/mg protein],MDA [1] [nmol/mg protein],SOD [1] [U/mg protein],ALP [1] [U/L],ALT [1] [U/L],AST [1] [U/L],LDH [1] [U/L],"HYP [2, 4] [μg/mg protein]","MDA [2, 4] [nmol/mg protein]","HYP [2, 5] [μg/mg protein]","MDA [2, 5] [nmol/mg protein]",ALP [3],ALT [3] [U/L],AST [3]
Oc1ccc(C=Cc2cc(O)cc(O)c2)cc1 [Resveratrol],174.33 ± 40.75,0.93 ± 0.15,1.17 ± 0.35,28.09 ± 4.55,203.6 ± 43.9,96.8 ± 41.9,205.33 ± 85.3,846.5 ± 261.2,0.75 ± 0.34,0.92 ± 0.33,–,–,–,–,–
"[2H]C([2H])([2H])Oc1ccc(/C=C/c2cc(OCCCC(C)(C)C(=O)O)cc(OC([2H])([2H])[2H])c2)cc1 [Compound I-2b, 3,4′-bis-[(trideuteratedmethyl)-oxy]-5-(4-methyl-4-carboxypentyloxy)-(E)-stilbene]",231.48 ± 58.72,0.58 ± 0.29,0.70 ± 0.08,33.60 ± 7.64,141.6 ± 27.6,69.1 ± 23.3,192.4 ± 78.4,836.5 ± 375.5,0.45 ± 0.08,0.76 ± 0.06,0.52 ± 0.11,0.75 ± 0.13,242.83 ± 83.29,26.47 ± 6.79,105.33 ± 16.85
"[2H]C([2H])([2H])Oc1ccc(/C=C/c2cc(OC)cc(OCCCC(C)(C)C(=O)O)c2)cc1 [Compound I-3b, 3-methoxy-4′-trideuterated methoxy-5-(4-methyl-4-carboxypentyloxy)-(E)-stilbene]",194.09 ± 32.82,0.70 ± 0.61,0.92 ± 0.43,31.33 ± 6.50,154.3 ± 65.0,79.9 ± 43.8,221.9 ± 109.4,780.4 ± 152.3,0.47 ± 0.10,0.73 ± 0.06,0.51 ± 0.09,0.81 ± 0.09,381.67 ± 221.42,36.57 ± 10.40,138.32 ± 29.72
"[2H]C([2H])([2H])Oc1cc(/C=C/c2ccc(OC)cc2)cc(OCCCC(C)(C)C(=O)O)c1 [Compound I-4b, 3-trideuterated methoxy-4′-methoxy-5-(4-methyl-4-carboxypentyloxy)-(E)-stilbene]",224.33 ± 2.16,0.68 ± 0.27,0.77 ± 0.14,28.64 ± 6.33,140.8 ± 60.2,91.3 ± 32.5,233.5 ± 90.6,771.1 ± 210.2,0.59 ± 0.12,0.78 ± 0.24,0.74 ± 0.19,0.96 ± 0.19,258.33 ± 219.45,16.07 ± 2.45,72.73 ± 15.82
"COc1ccc(/C=C/c2cc(OC)cc(OCCCC(C)(C)C(=O)O)c2)cc1 [Compound I-1b, 3,4′-dimethoxy-5-(4-methyl-4-carboxypentyloxy)-(E)-stilbene]",204.78 ± 27.75,0.59 ± 0.06,0.72 ± 0.12,29.99 ± 5.24,149.9 ± 52.9,85.3 ± 46.4,209.1 ± 63.2,843.1 ± 247.9,0.54 ± 0.12,0.84 ± 0.09,0.71 ± 0.17,0.91 ± 0.05,471.35 ± 29.88,47.33 ± 10.61,161.6 ± 18.32
